In US6953810B2, “Nicotinamide biaryl derivatives useful as inhibitors of PDE4 isozymes” (Pfizer Inc, priority 2001, dated 2005):
“Also recorded” adds a separate entry of the source.

Legend:
[1] = system: lung, BAL, airway and pleural eosinophilia; details: guinea-pig; cited from earlier work
[2] = in vivo; cited from earlier work
[3] = system: airway hyper-responsiveness (AHR); details: guinea-pig; PAF-, ozone- or ACh-induced; cited from earlier work
[4] = system: antigen-induced lung eosinophilia; details: rat; cited from earlier work
[5] = system: isolated pulmonary artery rings; details: cited from earlier work
[6] = system: lipopolysaccharide-induced mesenteric blood flow fall; details: dog, in vivo; cited from earlier work
[7] = system: human peripheral blood mononuclear cells (HPBM); details: normal patients and subjects with atopic dermatitis; cited from earlier work
[8] = system: bone marrow culture; details: cited from earlier work
[9] = system: guinea-pig trachea; details: cited from earlier work
[10] = system: patients; details: oral 5, 10, and 15 mg b.i.d., week 2; cited from earlier work
[11] = system: rhinorrhea; details: in vivo; cited from earlier work
[12] = system: ex vivo TNF release and lymphocyte proliferation; details: oral dose of 300 mg; cited from earlier work
[13] = system: antigen-induced bronchoconstriction; details: guinea-pig; cited from earlier work
[14] = system: rheumatoid arthritis patients; parameters: dose or concentration left out as unconfirmed; details: 35 patients; cited from earlier work
[15] = system: SCW-induced arthritis; details: in vivo; cited from earlier work
[16] = system: tumor cells; details: at micromolar concentrations; cited from earlier work
[17] = system: chronic relapsing experimental allergic encephalomyelitis; details: SJL mice; cited from earlier work
[18] = system: collagen II induced arthritis; details: 3 mg/kg twice daily when arthritis was apparent; cited from earlier work
[19] = system: experimental allergic encephalomyelitis; details: marmoset; cited from earlier work
[20] = system: psoriatic lesions; details: two double-blind studies; cited from earlier work
[21] = system: psoriatic epidermal slices; details: psoriatic and keratomed psoriatic epidermal slices; cited from earlier work
[22] = system: late reactions to inhaled allergen; details: oral 15 and 30 mg, 9.5 days; cited from earlier work
[23] = system: catalytic site (Sc) of PDE4; details: cited from earlier work

SMILES: COc1ccc(C(=O)Nc2c(Cl)cncc2Cl)cc1OC1CCCC1 [RP-73,401, piclamilast]
- inhibition of IL-5 induced pleural eosinophila [1]: active
- inhibition of antigen-induced lung, BAL or airway eosinophilia [1]: active
- emesis, nausea, vomiting [2]: elicit emesis
- inhibition of airway hyper-responsiveness (AHR) [3]: active

SMILES: Cc1cc2c3c(c1)C(c1ccccc1)=N[C@@H](NC(=O)c1ccncc1)C(=O)N3CC2 [CI-1018]
- oral potency ED50 [4]: 5 mg/kg

SMILES: Cc1[nH]c(=O)c(C#N)cc1-c1ccncc1 [milrinone]
- effect on relaxant activities of isoproterenol and forskolin [5]: same effect

SMILES: COc1ccc(C2CNC(=O)NC2)cc1O[C@H]1C[C@@H]2CC[C@H]1C2 [CP-80,633, atizoram]
- emesis, nausea, vomiting [2]: elicit emesis

SMILES: CCCCn1c(=O)c2c(ncn2CC(C)=O)n(CCCC)c1=O [denbufylline]
- potency relative to pentoxifylline in inhibiting lipopolysaccharide-induced mesenteric blood flow fall [6]: 100 fold
- inhibition of proliferation of HPBM [7]: concentration-related inhibition
- mineralized nodules in bone marrow culture [8]: increase in the number of mineralized nodules

SMILES: O=S1(=O)CCN(c2nc(NC3CC3)nc(C3CC3)n2)C1 [Formula (0.0.56)]
- relaxation in a guinea-pig trachea model [9]: potent relaxant agents

SMILES: COc1ccc([C@]2(C#N)CC[C@@H](C(=O)O)CC2)cc1OC1CCCC1 [SB-207,499]
- trough FEV1 versus placebo [10]: significant increases

SMILES: CCCC1C(=O)C2=C(C(CC)=NC2C)c2nc(OC)ccc21 [Example D-22888]
- rhinorrhea in the antigen-challenged pig [11]: inhibit rhinorrhea

SMILES: CCNc1ncn(Cc2ccc(OC)c(OC3CCCC3)c2)c2nc(C(C)C)nc1-2 [Example V-11294A]
- reduction of TNF levels and lymphocyte proliferation [12]: effective

SMILES: O=c1c2cccnc2n(-c2cccc([N+](=O)[O-])c2)c(=O)n1Cc1ccncc1 [RS-23,544]
- emesis, nausea, vomiting [2]: elicit emesis

SMILES: O=c1c2c(ncn2Cc2cccnc2)c2cccnc2n1-c1ccccc1 [KF19514]
- inhibition of antigen-induced lung, BAL or airway eosinophilia [1]: activity
- inhibition of airway hyper-responsiveness (AHR) [3]: activity
- inhibition of antigen-induced bronchoconstriction [13]: activity

SMILES: Nc1nc2c([nH]1)c(=O)n(CC1CC1)c(=O)n2CC1CC1 [BRL-61,063, cipamfylline]
- emesis, nausea, vomiting [2]: adverse events of nausea and vomiting

SMILES: CC1CC1c1nc(NC2CC2)nc(N2CCOCC2)n1 (stereo not drawn) [Formula (0.0.57)]
- relaxation in a guinea-pig trachea model [9]: potent relaxant agents

SMILES: COc1ccc(C(=O)Nc2c(Cl)cncc2Cl)cc1OC1CCCC1 [RP73401]
- clinical improvement with reduction in C-reactive protein and IL-6 serum levels [14]: positive trend towards clinical improvement
- disease in SCW-induced arthritis (joint destruction, synovitis, fibrosis) [15]: significant amelioration of disease

SMILES: O=c1c2[nH]cnc2c2cccnc2n1-c1ccccc1 [KF17625]
- inhibition of antigen-induced lung, BAL or airway eosinophilia [1]: activity
- inhibition of airway hyper-responsiveness (AHR) [3]: activity
- inhibition of antigen-induced bronchoconstriction [13]: activity

SMILES: Clc1nc2c(N3CCCC3)nc(N3CCNCC3)nc2nc1NCc1ccccc1 [Formula (0.0.55)]
- inhibition of growth of tumor cells [16]: inhibit the growth of tumor cells

SMILES: N#Cc1cccc(Oc2ncccc2C(=O)NCc2ccc(-c3cccc(C(=O)O)c3)cc2F)c1 [Example 4, 4′-[[[2-[3-Cyano-phenoxy]-pyridine-3-carbonyl]-amino]-methyl]-biphenyl-3′-fluoro-biphenyl-3-carboxylic acid]
- melting point: 200 to 202 °C

SMILES: O=C(O)c1cccc(-c2ccc(CNC(=O)c3cccnc3Oc3ccc(F)cc3)cc2)c1 [Example 1, 4′-[[[2-[4-Fluorophenoxyl]-pyridine-3-carbonyl]-amino]-methyl]-biphenyl-3-carboxylic acid]
- melting point: 184 to 186 °C

SMILES: COc1ccc(C2CNC(=O)C2)cc1OC1CCCC1 (stereo not drawn) [rolipram]
- clinical signs and pathological changes of chronic relapsing EAE [17]: ameliorates clinical signs and pathological changes
- development of disease [18]: progression of severity was halted
- clinical signs of EAE [19]: suppress the appearance of clinical signs
- effect on relaxant activities of isoproterenol and forskolin [5]: potentiates the relaxant activities of isoproterenol and forskolin
- inhibition of proliferation of HPBM [7]: concentration-related inhibition

SMILES: COc1ccc(CC2CNC(=O)N2)cc1OC1CCCC1 (stereo not drawn) [Ro 20-1724]
- psoriatic lesions versus vehicle [20]: improve psoriatic lesions
- elevation of cAMP concentrations over controls [21]: very marked elevation

SMILES: COc1ccc([C@H](Cc2ccncc2)c2ccccc2)cc1OC1CCCC1 [CDP840]
- late reactions / late-phase response to inhaled allergen [22]: suppression; also recorded: significant inhibition
- emesis, nausea, vomiting [2]: without any adverse events of nausea or headache
- potency at the Sc compared with SB-207,499 [23]: significantly higher potency

SMILES: O=C(O)c1cccc(-c2ccc(CNC(=O)c3cccnc3Oc3ccc4c(c3)OCO4)c(F)c2)c1 [Example 3]
- melting point: 190 to 192 °C
